Assay [1] has as its target T1, Angiotensin-converting enzyme (Homo sapiens, UniProt P12821). Nature of the assay: Inhibition of ACE at 100 uM.
The target of assay [2] is T1, Angiotensin-converting enzyme. Nature of the assay: Inhibition of ACE at 200 uM.
The test system of assay [3] is Rattus norvegicus. In words: Antihypertensive activity in spontaneously hypertensive rat assessed as inhibition of angiotensin 1-induced vasopressive response at 20 mg/kg, iv after 20 mins. It counts as functional.
Assay [4] deals with Rattus norvegicus. Nature of the assay: Antihypertensive activity in spontaneously hypertensive rat assessed as inhibition of angiotensin 1-induced vasopressive response at 20 mg/kg, iv after 30 mins. It counts as functional. Particulars: 0.5 h.
Assay [5] concerns Rattus norvegicus. In words: Antihypertensive activity in spontaneously hypertensive rat assessed as inhibition of angiotensin 1-induced vasopressive response at 40 mg/kg, iv after 30 mins. It counts as functional. Conditions: 0.5 h.
Assay [6] deals with Rattus norvegicus. Nature of the assay: Antihypertensive activity in spontaneously hypertensive rat assessed as inhibition of angiotensin 1-induced vasopressive response at 80 mg/kg, iv after 20 mins. It counts as functional.
Assay [7] has as its target T1, Angiotensin-converting enzyme. In words: Inhibition of ACE by Lineweaver-Burke plot.
Assay [8] deals with Rattus norvegicus. In words: Antihypertensive activity in spontaneously hypertensive rat assessed as inhibition of angiotensin 1-induced vasopressive response at 40 mg/kg, iv after 10 mins. It counts as functional.
The subject of assay [9] is Rattus norvegicus. In words: Antihypertensive activity in spontaneously hypertensive rat assessed as inhibition of angiotensin 1-induced vasopressive response at 20 mg/kg, iv after 10 mins. It counts as functional.
Assay [10] addresses T1, Angiotensin-converting enzyme. Nature of the assay: Inhibition of ACE at 400 uM.
The subject of assay [11] is Rattus norvegicus. In words: Antihypertensive activity in spontaneously hypertensive rat assessed as inhibition of angiotensin 1-induced vasopressive response at 80 mg/kg, iv after 30 mins. It counts as functional. Particulars: 0.5 h.
In assay [12] the test system is Rattus norvegicus. Nature of the assay: Antihypertensive activity in spontaneously hypertensive rat assessed as inhibition of angiotensin 1-induced vasopressive response at 80 mg/kg, iv after 10 mins. It counts as functional.
For assay [13], the system named is Rattus norvegicus. In words: Antihypertensive activity in spontaneously hypertensive rat assessed as inhibition of angiotensin 1-induced vasopressive response at 40 mg/kg, iv after 20 mins. It counts as functional.
The target in assay [14] is T1, Angiotensin-converting enzyme. Nature of the assay: Inhibition of ACE.
The subject of assay [15] is Rattus norvegicus. In words: Antihypertensive activity in spontaneously hypertensive rat assessed as inhibition of angiotensin 1-induced vasopressive response at 0.04 mg/kg, iv after 30 mins. Particulars: 0.5 h. It counts as functional.
The test system of assay [16] is Rattus norvegicus. Nature of the assay: Antihypertensive activity in spontaneously hypertensive rat assessed as inhibition of angiotensin 1-induced vasopressive response at 0.4 mg/kg, iv after 10 mins. It counts as functional.
Assay [17] concerns Rattus norvegicus. In words: Antihypertensive activity in spontaneously hypertensive rat assessed as inhibition of angiotensin 1-induced vasopressive response at 0.04 mg/kg, iv after 10 mins. It counts as functional.
Assay [18] deals with Rattus norvegicus. Nature of the assay: Antihypertensive activity in spontaneously hypertensive rat assessed as inhibition of angiotensin 1-induced vasopressive response at 0.4 mg/kg, iv after 30 mins. It counts as functional. Conditions: 0.5 h.
Assay [19] has as its system Rattus norvegicus. In words: Antihypertensive activity in spontaneously hypertensive rat assessed as inhibition of angiotensin 1-induced vasopressive response at 0.04 mg/kg, iv after 20 mins. It counts as functional.
For assay [20], the system named is Rattus norvegicus. In words: Antihypertensive activity in spontaneously hypertensive rat assessed as inhibition of angiotensin 1-induced vasopressive response at 0.4 mg/kg, iv after 20 mins. It counts as functional.

T1 sequence (P12821 whole entry): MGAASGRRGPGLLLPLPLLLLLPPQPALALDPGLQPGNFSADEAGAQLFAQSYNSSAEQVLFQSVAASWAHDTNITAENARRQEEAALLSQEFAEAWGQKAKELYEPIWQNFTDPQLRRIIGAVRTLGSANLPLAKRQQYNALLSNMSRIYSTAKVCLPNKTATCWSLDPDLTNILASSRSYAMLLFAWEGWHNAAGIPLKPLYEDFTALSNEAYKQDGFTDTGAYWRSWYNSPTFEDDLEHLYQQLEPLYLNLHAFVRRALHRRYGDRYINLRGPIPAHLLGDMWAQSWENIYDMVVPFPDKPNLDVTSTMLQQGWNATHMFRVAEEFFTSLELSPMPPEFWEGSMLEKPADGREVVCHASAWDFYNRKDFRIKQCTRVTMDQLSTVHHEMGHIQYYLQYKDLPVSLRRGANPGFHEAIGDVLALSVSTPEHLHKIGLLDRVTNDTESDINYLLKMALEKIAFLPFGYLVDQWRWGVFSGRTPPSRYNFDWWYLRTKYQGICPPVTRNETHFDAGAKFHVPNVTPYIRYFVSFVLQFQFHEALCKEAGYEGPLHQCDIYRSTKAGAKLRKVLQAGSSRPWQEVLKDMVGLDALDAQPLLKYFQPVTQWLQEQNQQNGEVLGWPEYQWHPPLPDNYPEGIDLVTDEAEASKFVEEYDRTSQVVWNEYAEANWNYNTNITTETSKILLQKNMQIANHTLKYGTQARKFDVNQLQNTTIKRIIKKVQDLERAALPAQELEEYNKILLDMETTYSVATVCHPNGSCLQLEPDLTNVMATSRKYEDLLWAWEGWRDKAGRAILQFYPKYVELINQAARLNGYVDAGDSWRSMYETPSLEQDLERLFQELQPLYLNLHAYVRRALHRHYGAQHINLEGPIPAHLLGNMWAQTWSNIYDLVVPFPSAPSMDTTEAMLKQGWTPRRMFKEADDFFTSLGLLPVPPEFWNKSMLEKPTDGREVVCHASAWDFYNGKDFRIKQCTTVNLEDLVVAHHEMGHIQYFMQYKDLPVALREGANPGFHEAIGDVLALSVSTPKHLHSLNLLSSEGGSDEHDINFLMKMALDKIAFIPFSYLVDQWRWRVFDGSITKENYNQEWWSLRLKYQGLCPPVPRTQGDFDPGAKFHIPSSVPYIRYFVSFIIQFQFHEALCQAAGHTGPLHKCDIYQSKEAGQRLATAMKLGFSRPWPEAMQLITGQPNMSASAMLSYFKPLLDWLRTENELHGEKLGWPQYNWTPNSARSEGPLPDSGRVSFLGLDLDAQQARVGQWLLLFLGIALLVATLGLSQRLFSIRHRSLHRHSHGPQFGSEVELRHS

Turning to `CC(=O)Oc1cc(OC(C)=O)c2c(=O)c3ccc(OC(C)=O)c(OC(C)=O)c3oc2c1`, the inhibition in assay [1] is less than 1%.
Turning to `CC(=O)Oc1cc2oc3c(OC(C)=O)c(OC(C)=O)ccc3c(=O)c2cc1OC(C)=O`, the inhibition in assay [1] worked out at 9.82%.
As to `O=c1c2cc(O)c(O)cc2oc2c(O)c(O)ccc12`, the inhibition turned out to be 90% in [2], 95% in [10] and 83.1% in assay [1]. In addition, the inhibition in vivo at 20 mg/kg was 5.9% in the assay with Rattus norvegicus [3], 0% in the assay with Rattus norvegicus [4] and 33.8% in the assay on Rattus norvegicus [9]. In addition, the inhibition in vivo at 40 mg/kg with Rattus norvegicus [5] is 10%; with Rattus norvegicus [8] it was 47.8%; in the assay on Rattus norvegicus [13], 30.8%. Besides, the inhibition in vivo at 80 mg/kg with Rattus norvegicus [6] was 32.5%; in the assay on Rattus norvegicus [11] it was 13%; in the assay on Rattus norvegicus [12], 52.7%. In assay [7], this compound had an inhibitory constant (Ki) of 14.2 µM.
In [1], `CC(=O)Oc1ccc2c(=O)c3ccc(OC(C)=O)c(OC(C)=O)c3oc2c1OC(C)=O` returned an inhibition of 7%.
With `O=c1c2cc(O)c(O)cc2oc2cc(O)cc(O)c12`, the inhibition was 23.5% in [2], 40.3% in [10] and 15.5% in [1]. In assay [7], this compound registered a Ki of 250 µM. The same compound gave an IC50 in [14] of 531 µM.
Consider `O=c1c2cc(O)c(O)cc2oc2cc(O)c(O)cc12`, for which the inhibition in assay [2] was 17.2%; in [10] it was 26.8%; in assay [1] it was 11.7%. Moreover, in [14], the IC50 is more than 769 µM.
Consider `C[C@H](CS)C(=O)N1CCC[C@H]1C(=O)O` [CAPTOPRIL], for which the inhibition in vivo at 0.04 mg/kg in the assay with Rattus norvegicus [15] was found to be 0%; in the assay on Rattus norvegicus [17], 10%; in the assay with Rattus norvegicus [19], 0%. The inhibition in vivo at 0.4 mg/kg was determined as 78.5% with Rattus norvegicus [16], 45.5% in the assay on Rattus norvegicus [18] and 66.6% in the assay on Rattus norvegicus [20].
As to `O=c1c2ccc(O)c(O)c2oc2cc(O)cc(O)c12`, the inhibition was determined as 67.7% in [2], 75.3% in assay [10] and 56.4% in assay [1]. In assay [7], this compound yielded an inhibition constant (Ki) of 34.2 µM. Further, the IC50 in [14] came out at 69.2 µM.
In [1], `CC(=O)Oc1cc2oc3cc(OC(C)=O)c(OC(C)=O)cc3c(=O)c2cc1OC(C)=O` had an inhibition of less than 1%.
As for `O=c1c2ccc(O)c(O)c2oc2c(O)c(O)ccc12`, the inhibition in [2] is 46.2%; in assay [10] it was 55.5%; in assay [1], 34.3%. Besides, in assay [7], affinity was put at a Ki of 126 µM. This compound also returned an IC50 in [14] of 239 µM.
In assay [1], `CC(=O)Oc1cc(OC(C)=O)c2c(=O)c3cc(OC(C)=O)c(OC(C)=O)cc3oc2c1` yielded an inhibition of less than 1%.

For orientation: inhibition means how much of the control response was suppressed. Read a low inhibition as little suppression. What is called inhibition in vivo is the share of the control response that was lost under treatment. By Ki is commonly meant the equilibrium dissociation constant of an inhibitor or competing ligand from its target. A low value points to a stronger hold on the target. For orientation: IC50 means the concentration at which inhibition is half-maximal. Read a low IC50 as greater potency in that assay.
